Experiments:
rat [1] = details: cited from earlier work
rat [2] = test: rat oral LD50 (acute toxicity); type: in vivo; details: relative to soil termiticide fipronil

| SMILES | rat oral LD50 (rat [1]) | fold less toxic than fipronil (rat oral LD50) (rat [2]) [fold] |
| --- | --- | --- |
| N#Cc1nn(-c2c(Cl)cc(C(F)(F)F)cc2Cl)c(N)c1[S+]([O-])C(F)(F)F (stereo not drawn) [fipronil] | 97 mg/kg | – |
| O=C(NC(=O)c1c(F)cccc1F)Nc1cc(Cl)c(OC(F)(F)C(F)C(F)(F)F)c(Cl)c1F (stereo not drawn) [noviflumuron] | > 3,160 mg/kg | 32 |
